Tests used:
rat orexin 1 receptor = rat orexin 1 receptor (Rattus norvegicus, UniProt P56718); assay: Rat orexin 1 receptor radioligand binding; details: rat orexin 1 receptor; averages of 2-20 runs; read-out: rOX1 Ki
Procedure, shortened: (§1)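 Competition binding with the tritiated thiazolyl-pyrrolidinyl-methanone radioligand in PBS on homogenized rat or human OX1R-expressing cell suspensions, ≤0.1% DMSO; nonspecific binding defined with 10 μM almorexant. Bound radioactivity read by scintillation after filtration; IC50 from one-site competition fit, converted to Ki using pre-determined radioligand Kd.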

human orexin 2 receptor = human orexin 2 receptor (Homo sapiens (Human), UniProt O43614); assay: Human orexin 2 receptor radioligand binding; details: human orexin 2 receptor; averages of 2-20 runs; read-out: hOX2 Ki
human orexin 2 receptor, sequence (O43614 whole entry): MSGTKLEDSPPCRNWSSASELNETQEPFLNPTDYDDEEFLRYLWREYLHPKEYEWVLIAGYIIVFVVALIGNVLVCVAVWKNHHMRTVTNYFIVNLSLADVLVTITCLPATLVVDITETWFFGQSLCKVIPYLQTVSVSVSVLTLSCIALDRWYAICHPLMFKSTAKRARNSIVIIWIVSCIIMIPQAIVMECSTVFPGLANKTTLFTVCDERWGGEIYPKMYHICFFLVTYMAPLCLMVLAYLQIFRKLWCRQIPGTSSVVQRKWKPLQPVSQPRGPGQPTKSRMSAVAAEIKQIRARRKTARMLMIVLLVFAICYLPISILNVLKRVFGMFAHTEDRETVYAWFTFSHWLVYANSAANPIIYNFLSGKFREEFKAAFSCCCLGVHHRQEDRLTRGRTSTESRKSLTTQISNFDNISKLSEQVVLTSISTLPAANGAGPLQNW
Procedure, shortened: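 HEK293 cells stably expressing human OX2 receptor, homogenized, incubated with [3H]-EMPA and compounds (DMSO ≤0.1%); nonspecific binding with 10 μM almorexant. Filter-bound radioactivity counted by scintillation; IC50 from one-site competition fit of triplicates, Ki from IC50 and predetermined radioligand Kd, averaged over 2-20 runs.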

human orexin 1 receptor = human orexin 1 receptor (Homo sapiens, UniProt O43613); assay: Human orexin 1 receptor radioligand binding; details: human orexin 1 receptor; averages of 2-20 runs; read-out: hOX1 Ki
Procedure, shortened: as §1

SMILES | Ki (rat orexin 1 receptor) [nM] | Ki (human orexin 2 receptor) [nM] | Ki (human orexin 1 receptor) [nM]
Cc1cccc(C(=O)N2C[C@H]3C[C@@H](Nc4cnc(C(F)(F)F)cn4)[C@@H]2C3)c1-n1nccn1 [Example 196, (3-methyl-2-(2H-1,2,3-triazol-2-yl)phenyl)((1S,4S,6R)-6-((5-(trifluoromethyl)pyrazin-2-yl)amino)-2-azabicyclo[2.2.1]heptan-2-yl)methanone] | 6 | 60 | 4
COc1ccc(C(=O)N2C[C@H]3C[C@@H](Nc4cnc(C(F)(F)F)cn4)[C@@H]2C3)c(-n2nccn2)c1 [Example 197, (4-methoxy-2-(2H-1,2,3-triazol-2-yl)phenyl)((1S,4S,6R)-6-((5-(trifluoromethyl)pyrazin-2-yl)amino)-2-azabicyclo[2.2.1]heptan-2-yl)methanone] | 93 | 9700 | 39
O=C(c1ccc(F)cc1-c1ncccn1)N1C[C@H]2C[C@@H](Nc3cnc(C(F)(F)F)cn3)[C@@H]1C2 [Example 198, (4-fluoro-2-(pyrimidin-2-yl)phenyl)((1S,4S,6R)-6-((5-(trifluoromethyl)pyrazin-2-yl)amino)-2-azabicyclo[2.2.1]heptan-2-yl)methanone] | 11 | 1380 | 9
O=C(c1cc(F)ccc1-c1ncccn1)N1C[C@H]2C[C@@H](Nc3cnc(C(F)(F)F)cn3)[C@@H]1C2 [Example 199, (5-fluoro-2-(pyrimidin-2-yl)phenyl)((1S,4S,6R)-6-((5-(trifluoromethyl)pyrazin-2-yl)amino)-2-azabicyclo[2.2.1]heptan-2-yl)methanone] | 6 | 221 | 8
O=C(c1c(F)cccc1-c1ncccn1)N1C[C@H]2C[C@@H](Nc3cnc(C(F)(F)F)cn3)[C@@H]1C2 [Example 200, (2-fluoro-6-(pyrimidin-2-yl)phenyl)((1S,4S,6R)-6-((5-(trifluoromethyl)pyrazin-2-yl)amino)-2-azabicyclo[2.2.1]heptan-2-yl)methanone] | 7 | 240 | 6
O=C(c1ccccc1-c1ncccn1)N1C[C@H]2C[C@@H](Nc3cnc(C(F)(F)F)cn3)[C@@H]1C2 [Example 201, (2-(pyrimidin-2-yl)phenyl)((1S,4S,6R)-6-((5-(trifluoromethyl)pyrazin-2-yl)amino)-2-azabicyclo[2.2.1]heptan-2-yl)methanone] | 6 | 213 | 6
O=C(c1cc(F)ccc1-c1ncco1)N1C[C@H]2C[C@@H](Nc3cnc(C(F)(F)F)cn3)[C@@H]1C2 [Example 202, (5-fluoro-2-(oxazol-2-yl)phenyl)((1S,4S,6R)-6-((5-(trifluoromethyl)pyrazin-2-yl)amino)-2-azabicyclo[2.2.1]heptan-2-yl)methanone] | 13 | 302 | 13
O=C(c1ccccc1-c1ncc(F)cn1)N1C[C@H]2C[C@@H](Nc3cnc(C(F)(F)F)cn3)[C@@H]1C2 [Example 203, (2-(5-fluoropyrimidin-2-yl)phenyl)((1S,4S,6R)-6-((5-(trifluoromethyl)pyrazin-2-yl)amino)-2-azabicyclo[2.2.1]heptan-2-yl)methanone] | 9 | 545 | 9
O=C(c1cccc(F)c1-c1ncc(F)cn1)N1C[C@H]2C[C@@H](Nc3cnc(C(F)(F)F)cn3)[C@@H]1C2 [Example 204, (3-fluoro-2-(5-fluoropyrimidin-2-yl)phenyl)((1S,4S,6R)-6-((5-(trifluoromethyl)pyrazin-2-yl)amino)-2-azabicyclo[2.2.1]heptan-2-yl)methanone] | 9 | 960 | 9
O=C(c1nccnc1-c1ccccc1)N1C[C@H]2C[C@@H](Nc3cnc(C(F)(F)F)cn3)[C@@H]1C2 [Example 205, (3-phenylpyrazin-2-yl)((1S,4S,6R)-6-((5-(trifluoromethyl)pyrazin-2-yl)amino)-2-azabicyclo[2.2.1]heptan-2-yl)methanone] | 51 | 846 | 35
O=C(c1ccccc1-c1ccccc1)N1C[C@H]2C[C@@H](Nc3cnc(C(F)(F)F)cn3)[C@@H]1C2 [Example 206, [1,1′-biphenyl]-2-yl((1S,4S,6R)-6-((5-(trifluoromethyl)pyrazin-2-yl)amino)-2-azabicyclo[2.2.1]heptan-2-yl)methanone] | 8 | 103 | 10
O=C(c1occc1-c1ccccc1)N1C[C@H]2C[C@@H](Nc3cnc(C(F)(F)F)cn3)[C@@H]1C2 [Example 207, (3-phenylfuran-2-yl)((1S,4S,6R)-6-((5-(trifluoromethyl)pyrazin-2-yl)amino)-2-azabicyclo[2.2.1]heptan-2-yl)methanone] | 143 | 611 | 127
CN(c1cnc(C(F)(F)F)cn1)[C@@H]1C[C@H]2C[C@@H]1N(C(=O)c1cccc(F)c1-c1ncccn1)C2 [Example 208, (3-fluoro-2-(pyrimidin-2-yl)phenyl)((1S,4S,6R)-6-(methyl(5-(trifluoromethyl)pyrazin-2-yl)amino)-2-azabicyclo[2.2.1]heptan-2-yl)methanone] | 7 | 846 | 6
CN(c1cnc(C(F)(F)F)cn1)[C@@H]1C[C@H]2C[C@@H]1N(C(=O)c1cc(F)ccc1-c1ncccn1)C2 [Example 209, (5-fluoro-2-(pyrimidin-2-yl)phenyl)((1S,4S,6R)-6-(methyl(5-(trifluoromethyl)pyrazin-2-yl)amino)-2-azabicyclo[2.2.1]heptan-2-yl)methanone] | 9 | 753 | 5
CN(c1cnc(C(F)(F)F)cn1)[C@@H]1C[C@H]2C[C@@H]1N(C(=O)c1ccccc1-c1ncccn1)C2 [Example 210, ((1S,4S,6R)-6-(methyl(5-(trifluoromethyl)pyrazin-2-yl)amino)-2-azabicyclo[2.2.1]heptan-2-yl)(2-(pyrimidin-2-yl)phenyl)methanone] | 6 | 502 | 5
O=C(c1cccc(F)c1-c1ncccn1)N1C[C@H]2C[C@@H](N(CC3CC3)c3cnc(C(F)(F)F)cn3)[C@@H]1C2 [Example 211, ((1S,4S,6R)-6-((cyclopropylmethyl)(5-(trifluoromethyl)pyrazin-2-yl)amino)-2-azabicyclo[2.2.1]heptan-2-yl)(3-fluoro-2-(pyrimidin-2-yl)phenyl)methanone] | 31 | 1300 | 16
O=C(c1cccc(F)c1-n1nccn1)N1C[C@H]2C[C@@H](Nc3cnc(Cl)cn3)[C@@H]1C2 [Example 212, ((1S,4S,6R)-6-((5-chloropyrazin-2-yl)amino)-2-azabicyclo[2.2.1]heptan-2-yl)(3-fluoro-2-(2H-1,2,3-triazol-2-yl)phenyl)methanone] | 14 | 607 | 9
O=C(c1cc(F)ccc1-n1nccn1)N1CC2CC(Nc3cnc(Cl)cn3)C1C2 [Example 213, 1S,4S,6R)-6-((5-chloropyrazin-2-yl)amino)-2-azabicyclo[2.2.1]heptan-2-yl)(5-fluoro-2-(2H-1,2,3-triazol-2-yl)phenyl)methanone] | 39 | 871 | 31
O=C(c1cccc(F)c1-c1ncccn1)N1C[C@H]2C[C@@H](Nc3cnc(Cl)cn3)[C@@H]1C2 [Example 214, ((1S,4S,6R)-6-((5-chloropyrazin-2-yl)amino)-2-azabicyclo[2.2.1]heptan-2-yl)(3-fluoro-2-(pyrimidin-2-yl)phenyl)methanone] | 13 | 708 | 14
O=C(c1ccccc1-c1ncccn1)N1C[C@H]2C[C@@H](Nc3cnc(Cl)cn3)[C@@H]1C2 [Example 215, ((1S,4S,6R)-6-((5-chloropyrazin-2-yl)amino)-2-azabicyclo[2.2.1]heptan-2-yl)(2-(pyrimidin-2-yl)phenyl)methanone] | 12 | 435 | 13
Cc1cnc(N[C@@H]2C[C@H]3C[C@@H]2N(C(=O)c2cccc(F)c2-n2nccn2)C3)cn1 [Example 217, (3-fluoro-2-(2H-1,2,3-triazol-2-yl)phenyl)((1S,4S,6R)-6-((5-methylpyrazin-2-yl)amino)-2-azabicyclo[2.2.1]heptan-2-yl)methanone] | 12 | 390 | 29
Cc1cnc(N[C@@H]2C[C@H]3C[C@@H]2N(C(=O)c2cc(F)ccc2-n2nccn2)C3)cn1 [Example 218, (5-fluoro-2-(2H-1,2,3-triazol-2-yl)phenyl)((1S,4S,6R)-6-((5-methylpyrazin-2-yl)amino)-2-azabicyclo[2.2.1]heptan-2-yl)methanone] | 31 | 490 | 49
Cc1cnc(N[C@@H]2C[C@H]3C[C@@H]2N(C(=O)c2cccc(F)c2-c2ncccn2)C3)cn1 [Example 219, (3-fluoro-2-(pyrimidin-2-yl)phenyl)((1S,4S,6R)-6-((5-methylpyrazin-2-yl)amino)-2-azabicyclo[2.2.1]heptan-2-yl)methanone] | 20 | 480 | 27
Cc1cnc(N[C@@H]2C[C@H]3C[C@@H]2N(C(=O)c2ccccc2-c2ncccn2)C3)cn1 [Example 220, ((1S,4S,6R)-6-((5-methylpyrazin-2-yl)amino)-2-azabicyclo[2.2.1]heptan-2-yl)(2-(pyrimidin-2-yl)phenyl)methanone] | 11 | 284 | 17
